Results reported in ChEMBL document CHEMBL1150996, “Syntheses and exploration of new biological activities in ethyl 6/7-substituted and 6, 7-disubstituted quinolin-4-one-3-carboxylates” (1996).
≈ marks a conversion by molar mass, not a printed value. Calls of active or inactive are those of the source. The rule behind the calls is not given here.

Key:
[1] = system: Plasmodium yoelii; experiment: (§1) Compound was evaluated for uM; set-up: concentration or dose not given beside the values; conditions: concentration not given here
[2] = system: Trichophyton benhamiae; experiment: In vitro minimum inhibitory concentration against Trichophyton mentagrophytes; type: functional, Arthroderma benhamiae
[3] = system: Plasmodium yoelii; experiment: Compound was evaluated for uM: No effect
[4] = system: Plasmodium yoelii; experiment: Compound was evaluated for anti-heme polymerase activity in intact erythrocytes infected with drug resistant Plasmodium yoelii at 1.0 uM concentration.; type: cell-based
[5] = system: Plasmodium yoelii; experiment: (§2) Compound was evaluated for uM concentration.; conditions: concentration not given here
[6] = system: Plasmodium yoelii; experiment: as §2; conditions: concentration not given here; remark: listed apart in the source
[7] = system: Plasmodium yoelii; experiment: as §1; conditions: concentration not given here

CCOC(=O)c1cnc2ccc(C3(CCC(=O)CCc4ccoc4)CCC(=O)NC3=O)cc2c1O (configuration not stated)
inhibition [1]: 82% | MIC [2]: 50 µg/mL (≈ 104 µM)

CCCCNC(=O)CCC1(c2ccc3ncc(C(=O)OCC)c(O)c3c2)CCC(=O)NC1=O (configuration not stated)
inhibition [1]: 85% | MIC [2]: 50 µg/mL (≈ 110 µM)

CCOC(=O)c1cnc2ccc(C3(CCC(=O)NCCC(C)C)CCC(=O)NC3=O)cc2c1O (configuration not stated)
inhibition [1]: 88% | MIC [2]: 50 µg/mL (≈ 106 µM)

CCOC(=O)c1cnc2cc(C3=NNC(=O)CC3)ccc2c1O
inhibition [1]: 69% | MIC [2]: 50 µg/mL (≈ 160 µM)

CCOC(=O)c1cnc2cc(CO)c(O)cc2c1O
inhibition [3]: inactive | MIC [2]: 50 µg/mL (≈ 190 µM)

CCOC(=O)c1cnc2ccc(C3(CCC(=O)CCc4ccc(OC)c(OC)c4)CCC(=O)NC3=O)cc2c1O (configuration not stated)
inhibition [1]: 86% | MIC [2]: 50 µg/mL (≈ 91.1 µM)

CCOC(=O)c1cnc2ccc(C3(CCC(=O)NC(C)CC)CCC(=O)NC3=O)cc2c1O (configuration not stated)
inhibition [4]: 68% | inhibition [5]: 17% | inhibition [6]: 42% | inhibition [1]: 71% | MIC [2]: 50 µg/mL (≈ 110 µM)

CCOC(=O)c1cnc2cc(C3CCC(=O)O3)ccc2c1O (configuration not stated)
inhibition [1]: 46% | MIC [2]: 50 µg/mL (≈ 166 µM)

CCOC(=O)c1cnc2ccc(C3(CCC(=O)OC)CCC(=O)NC3=O)cc2c1O (configuration not stated)
inhibition [4]: 62% | inhibition [5]: 11% | inhibition [6]: 40% | inhibition [1]: 66% | MIC [2]: 50 µg/mL (≈ 121 µM)

CCN(CC)CCCC(C)Nc1ccnc2cc(Cl)ccc12 (configuration not stated) [CHLOROQUINE]
inhibition [6]: 47% | inhibition [7]: 46% | MIC [2]: 50 µg/mL (≈ 156 µM)
